# Assay results as given in patent publication US11357739B2, “Pimarane diterpenoids for use in wound healing and angiogenesis” (UNIVERSITY OF SOUTH CAROLINA, priority 2017, dated 2022).
# How the values were obtained:
# NHEKs = test: In vitro scratch assay (cell migration, wound closure); type: cell-based, human
# Experimental: (§1) Human umbilical vein endothelial cells (HUVECs), adult normal human epidermal keratinocytes (NHEKs), normal human dermal fibroblasts (NHDFs) and related media for cell culture including endothelial basal and growth medium-2 (EBM-2, EGM-2), keratinocyte basal and growth medium-2 (KBM-2, KGM™-2), fibroblast basal and growth medium (FBM, FGM™) were purchased from Lonza. Cells were incubated at 37° C. and 5% CO2 throughout the experiments. Phosphate-Buffered Saline (PBS), [3-(4,5-dimethylthiazol-2-yl)-5-(3-carboxymethoxyphenyl)-2-(4-sulfophenyl)-2H-tetrazolium (MTS) (Promega) colorimetric assay and growth factor reduced matrigel BD (Corning) were from Sigma-Aldrich. Culture-Insert 2 Well 24 IbiTreat was used for the scratch assay.
# Cell migration of NHEKs was assessed through making a cell-free gap with a Culture-insert 2 well 24, consisting of two wells that were separated by a wall. A total of 70 μl of cell suspension comprising of 35×10^3 cell was applied in each well. Cells were given 24 hours to attach and reach confluency. Culture inserts were then removed, and cell debris was washed with PBS. The samples were supplemented with different concentration of the compound of interest in growth media and incubated at 37° C. and 5% CO2 for 20 hours. Images were taken every 4 hours using a phase contrast Nikon Eclipse Ti-E inverted microscope. Quantification of percent wound healing was performed by measuring the gap distance using the following formula:
# [formula] in which Wn is the width of gap after every 4 hours and W0 is the initial width zero right after forming a scratch. Capillary Tube Formation
# [1] = tested on: normal human dermal fibroblasts (NHDFs); test: Cytotoxicity assay (MTS), cell proliferation and viability; type: cell-based; conditions: 24 hours of exposure, 0.1 to 1 μg/mL, vs control and DMSO vehicle control
# Experimental: as §1
# (§2) In order to determine cell viability, HUVECs, NHDFs, NHEKs were cultured in their respective growth media to reach 80% confluency. Cells were seeded at the density of 3×10^3 cell per 96 well plate in a total volume of 100 μl in each well. After seeding, the cells were incubated for 24 hours at 37° C. and 5% CO2 to allow for cell attachment. Media was changed and replaced with media supplemented with the desired concentration of the compound of interest (0.1, 0.5, 1 and 10 μg/mL), being first dissolved at 10,000 μg/mL in DMSO and subsequently diluted in culture media. The vehicle control was culture medium supplemented with DMSO 0.1% (Macron Fine Chemicals), representing the highest final concentration of DMSO used to dissolve the natural compound. Following 24 hours of incubation, […] and incubated for 2 hours. Colored formazan absorbance which was produced by bio-reduction of MTS tetrazolium compound in live cells was read at 490 nm using a Spectramax 190 spectrophotometer and cell proliferation was assessed. A standard calibration curve at different concentration of cells was prepared to correlate cell number to absorbance.
# [2] = tested on: human umbilical vein endothelial cells (HUVECs); test: as above; type: cell-based; conditions: 24 hours of exposure, 0.1 to 1 μg/mL, vs control and DMSO vehicle control
# Experimental: as §1, §2
# [3] = tested on: normal human epidermal keratinocytes (NHEKs); test: as above; type: cell-based; conditions: 24 hours of exposure, 0.1 to 1 μg/mL, vs control and DMSO vehicle control
# Experimental: as §1, §2
# HUVECs = test: Capillary tube formation on matrigel; type: cell-based, human; conditions: 1 μg/mL, 8 hours
# Experimental: as §1
# Matrigel was kept in a −20° C. freezer and thawed on ice overnight in a 4° C. refrigerator. A total of 50 μl of thawed matrigel was added to each well of pre-chilled 96-well plate and then incubated for 30 min at 37° C. to form a gel. Next, 100 μl of a HUVEC cell suspension (passage 2-6) in conditioned media (20000 cell/well), including the compound of this invention, was added to gel and incubated at 37° C. for 8 hours. The number of junctions in tubes was examined using a phase contrast inverted microscope (Invitrogen EVOS FL Auto Cell Imaging) and compared to the conditions with no compound (negative control) and VEGF growth factor (positive control).
smiles,measurement,setting,value
C=CC1(C)CC2=CCC3C(C)(C)CCC(O)C3(C)C2CC1O (stereo not shown) [compound of FIG. 1],migration during exposure time,"NHEKs; 1 μg/mL, compared with untreated cells and 0.1 μg/mL",higheast migration
same,percentage of wound closure relative to non-treated control groups,"NHEKs; 1 μg/mL, four hours post-treatment",~10 fold
same,wound closure of NHEKs,"NHEKs; 0.1 and 1 μg/mL, monitored for 20 hours, vs untreated control",significantly enhance the wound closure
same,cell toxicity (MTS),[1],no cell toxicity
same,cell toxicity (MTS),[2],no cell toxicity
same,cell toxicity (MTS),[3],no cell toxicity
same,"tube formation, more than the control (untreated cell)",HUVECs,60%
